In a melting point compilation (Tetko et al.; mined from patent text by program, amines drawn as free bases though some values may be those of a salt):

| SMILES | melting point |
| --- | --- |
| Cc1cc(-n2cncn2)cc(C=O)c1N | 209 to 211 °C |
| O=c1oc2c(c(O)c1C(c1cc(NS(=O)(=O)c3cccc4cccnc34)cc(NS(=O)(=O)c3cccc4cccnc34)c1)C1CC1)CCCCCC2 (configuration not stated) | 139 to 145 °C |
| O=C(NC1(C2CC2)CC1)c1c(NC(=O)c2cc(Cl)nn2-c2ncccc2Cl)c(Cl)cc2cn[nH]c12 | 173 to 175 °C |
| O=C(O)c1cc(CO[N+](=O)[O-])cc(CO[N+](=O)[O-])c1 | 39 to 41 °C |
| CC(=O)OCC(=O)C1CCC2C3CCC4CC(OS(=O)(=O)c5ccc(C)cc5)CCC4(C)C3C(=O)CC12C (configuration not stated) | 155 to 156 °C |
| COC(=O)c1nc(Cc2ccccc2)n2c1CN=C(c1ccccc1Cl)c1cc(Cl)ccc1-2 | 155 to 158 °C |
| CCOC(=O)CC[C@H](NC(=O)c1ccc([N+](=O)[O-])cc1Cl)C(=O)OCC | 95 to 96 °C |
| CC(C)[C@H](NC(=O)OCc1ccccc1)[C@H](O)C(F)(F)F | 103 to 104 °C |
| CC(=O)Cn1c(=O)n(C2CCN(CCCC(c3ccc(F)cc3)c3ccc(F)cc3)CC2)c2ccc(Cl)cc21 | 175 °C |
| Nc1ccc(Oc2ncc(C(F)(F)F)cc2Cl)cc1 | 85 to 87 °C |
| Nc1ccc(S(=O)(=O)C[N+](=O)[O-])cc1 | 132 to 133 °C |
| CCCn1nc(C#N)cc1CC(C)(C)NC(=O)OC(C)(C)C | 115 to 116 °C |
| CNC(=S)NCCCSc1ncco1 | 43 to 45 °C |
| CN(C(=O)c1ccc2nonc2c1)C1CCN(C(=O)OC(C)(C)C)CC1 | 98 to 100 °C |
| COC(=NO)c1cccc2[nH]cc(C=O)c12 | 178 to 179 °C |
| COC(=O)c1cc(C)ccc1NC(=O)N(C)C | 92 °C |
| O=C(NC1(C(=O)O)CCc2cc(O)ccc2C1)C(F)(F)F (configuration not stated) | 70 to 95 °C |
| C=CC(=O)Oc1ccc(NS(C)(=O)=O)cc1 | 136 to 140 °C |
| CC(C)(C)c1cc(C#N)c(Nc2ccccc2[N+](=O)[O-])s1 | 85 to 90 °C |
| CC(O)C(=O)N[C@H](C(=O)NC(Cc1ccccc1)C(O)CNCC(O)C(Cc1ccccc1)NC(=O)OC(C)(C)C)C(C)C (some centres not stated) | 210 to 214 °C |
| O=C(CC(=O)C1CC1)c1cnccn1 | 111 to 112 °C |

| SMILES | melting point |
| --- | --- |
| Cc1cc(N2CCC(=O)CC2)nn2cnnc12 | 196 to 199 °C |
| CC(C)(C)OC(=O)N1CCn2c(Cl)c(-c3cccc(C#N)c3)c(C(N)=O)c2C1 | 206 to 208 °C |
| Nc1cc2c(Nc3ccc(F)c(Br)c3)ncnc2cn1 | 269 to 271 °C |
| Cc1cc(C)nc(NCC(O)CO)n1 (configuration not stated) | 124 to 127 °C |
| FC(F)(F)c1ccc(-c2cc(C(F)(F)F)n3ncc(Br)c3n2)cc1 | 136 °C |
| CNC(=O)c1cccnc1N | 140 to 142 °C |
| Cc1cc2occc2c(N2CCN(CC[C@H]3CC[C@H](NC(=O)CC4CCOCC4)CC3)CC2)n1 | 212 °C |
| OC1Oc2ccccc2-n2cnc(-c3noc(C4CC4)n3)c21 (configuration not stated) | 230 to 234 °C |
| C#CC1(O)CCC2(C)C(CCC3C2CCC2(C)C(C(=O)CO)CCC32)C1 (configuration not stated) | 156 to 157 °C |
| Cn1nc(-c2cccs2)n(C)c1=O | 108 to 110 °C |
| OC1CC2(CCNC2)c2ccccc21 (configuration not stated) | 155 to 158 °C |
| CCCCCNc1nc(NCC(C)C)c2ncn(CC(=O)O)c2n1 | 139 to 148 °C |
| CC(C)(C)c1cc(-c2nnc(C(N)=O)s2)cc(C(C)(C)C)c1O | 200 to 201 °C |
| COc1c(N2CCC(n3cncn3)C2)c(F)cc2c(=O)c(C(=O)O)cn(C3CC3)c12 (configuration not stated) | 221 to 222 °C |
| CCCCCCCCCCCCCCNC(=O)Nc1sc(C(=O)O)c(C)c1C(=O)OC(C)(C)C | 176 to 178 °C |
| O=S(=O)(Nc1ncc(Br)nc1OCc1cnccn1)c1cccc(Cl)c1Cl | 207 to 209 °C |
| CCCCCCCCCCCCCCCc1cc2c(C(=O)OCC)cccc2[nH]1 | 42 to 45 °C |
| O=C(Nc1ccc(SCCCCCCCCCCCCC(Cl)(Cl)C(=O)O)cc1)c1ccc(Cl)cc1 | 167 to 168 °C |
| CNC(=O)C(Cc1ccc(OC)cc1)NC(=O)C(CC(C)C)C(S)CC(=O)N1CCN(C)CC1 (configuration not stated) | 65 to 68 °C |
| CCC(C#N)(C(N)=O)c1ccccc1 (configuration not stated) | 116 to 117 °C |

The next lines start with the values.

| melting point | SMILES |
| --- | --- |
| 302 °C | O=C(NC(Cc1ccccc1)C(=O)O)c1ccc(-c2ccc(OCc3ccccc3)cc2)cc1 (configuration not stated) |
| 129 to 131 °C | CCCOC(=O)c1c(CN2CCCCC2)nc2cc(OC)c(OC)cc2c1-c1ccc(OC)c(OC)c1 |
| 141 to 142 °C | COc1cc2c(cc1OC)CC(=O)N(Cc1ccccc1)CC2 |
| 86 °C | C/C(=C\C(C)O)c1ccc(-c2ccccc2)c(Cl)c1 (configuration not stated) |
| 148 °C | Cc1cc(COc2ccc(S(=O)(=O)NC[C@@H](C(=O)NO)N3CCN(Cc4ccc(C(F)(F)F)cc4)CC3)cc2)c2ccccc2n1 |
| 119 to 121 °C | NC(=O)C(c1ccccc1)(c1ccccc1)C1CCN(C2CCCCC2)C1 (configuration not stated) |
| 151 to 153 °C | CCOC(=O)c1cn2c(n1)CN(C(=O)OCC)c1ccccc1-2 |
| 90 to 91.5 °C | CCc1ccc(Cc2cc(Br)cc(Br)c2O)cc1 |
| 108 to 115 °C | CC(C)NCC(O)COc1ccc(C2=NNC(=O)CC2)cc1 (configuration not stated) |
| 225 to 228 °C | O=C(O)c1cccc(-n2c(-c3ccccc3)cc3c2-c2ccccc2CC3)c1 |
| 131 to 132 °C | CCCCc1nc2cccc(C(=O)OC)c2n1Cc1ccc(-n2c(C)ccc2C#N)cc1 |
| 112 to 114 °C | O=C1c2ccccc2C(=O)N1CCCCOc1ccc([N+](=O)[O-])cc1 |
| 210 to 212 °C | NC(=O)c1ccc(C(=C2CC3CCC(C2)N3CCc2ccccc2)c2ccccc2)cc1 |
| 144 to 146 °C | COCc1cccc(CCC(O)c2ccccc2)c1NC(=O)CC1c2ccccc2Oc2ccccc21 (configuration not stated) |
| 101 °C | N#Cc1ccccc1S(=O)(=O)N1CCCC1c1ccc(F)cc1 (racemic) |
| 150 to 151 °C | CCC1(CC)OC(=O)Nc2ccc(-c3cccc(Cl)c3)cc21 |
| 186 to 187 °C | O=C(O)c1cc(Br)cc(OCc2ccccc2Cl)c1OCc1ccccc1Cl |
| 98 to 100 °C | CN(C)CCc1cn(Cc2ccccc2)c2ccc(C(C#N)S(=O)(=O)N(C)C(c3ccccc3)c3ccccc3)cc12 (configuration not stated) |
| 131 to 133 °C | O=[N+]([O-])c1ccc(OS(=O)(=O)c2ccccc2I)cc1 |

| melting point | SMILES |
| --- | --- |
| 98 to 101 °C | O=C(Cc1c(Cl)c(F)nc(F)c1Cl)OCc1ccccc1 |
| 257 to 258 °C | Cc1nc2c(Cl)c(NC(=O)Cc3ccc(Cl)cc3Cl)ccc2s1 |
| 262 to 264 °C | COc1ccc2c(c1)c1c3c(c(-c4ccccc4)cc1n2CCO)C(=O)NC3=O |
| 260 °C | CC(=O)Nc1nc2c(Oc3cc(-c4ccc(C(F)(F)F)cc4Br)ncn3)cccc2s1 |
| 111 to 113 °C | O=C(O)CCCCCCCn1nc(-c2ccccc2)c(-c2ccccc2)nc1=O |
| 46 to 50 °C | CCCn1nc(C(C)C)c(C(=O)OCc2cccc(C(=O)c3ccccc3)c2)c1Cc1ccc(-c2ccccc2S(N)(=O)=O)c(F)c1 |
| 109 to 111 °C | Cc1ccccc1C1NS(=O)(=O)c2ccccc21 (single isomer, unassigned; (+)) |
| 140 to 142 °C | CCOC(=O)c1c(-c2ccccc2Cl)c2cc(C(C)C)ccc2n(C)c1=O |
| 115 to 116 °C | CCn1ncc2c(ON=C(C)C)c(C(=O)c3ccccc3)cnc21 |
| 313 to 315 °C | O=c1oc2ccccc2c2c(-c3ccccc3)c3c4ccccc4ccn3c12 |
| 199 to 201 °C | CCCCCNC(=O)Nc1ccccc1C(=O)NC1CCN(C(c2ccccc2)c2ccccc2)CC1 |
| 173 to 174 °C | CN1CCN(c2cc3ccccc3c(=O)[nH]2)CC1CO (configuration not stated) |
| 118 to 119 °C | NCc1noc(-c2nn(Cc3ccccc3)c3ccccc23)n1 |
| 165 to 167 °C | N#Cc1cccc2c1CC(=O)c1ccccc1S2 |
| 223 to 225 °C | CC1(C)c2c(ccc3cc(C(N)=O)c(Cn4cncn4)cc23)OC1O (configuration not stated) |
| 64 °C | CCCc1ccc(-c2ccc(-c3ccc(F)s3)c(F)c2)cc1 |
| 113 °C | NC(=O)c1cc(Oc2cccc(CO)c2)ccn1 |
| 148 to 149 °C | Cc1cc2cc(CN3CCCC3)cnc2cc1NC(=O)c1ccc(-c2ccccc2F)cc1 |
| 130 to 132 °C | N#Cc1c(N2CCCCC2)cc(-c2ccc(F)cc2)c2c1Cc1ccccc1-2 |

| melting point | SMILES |
| --- | --- |
| 89 to 91 °C | c1ccc(-c2cccc(-n3cnc4cccnc43)c2)cc1 |
| 122 to 123 °C | OCCN1CCOC(c2ccccc2)(c2ccccc2)CC1 |
| 120 °C | COc1ccc(Oc2cccc(NC(=O)c3ccn4c3CSC4c3cccnc3)c2)cc1 (configuration not stated) |
| 240 to 241 °C | COc1ccc(-c2c(C(=O)O)c(=O)[nH]c3ccc(C)cc23)cc1OC |
| 183 to 186 °C | O=c1ccc(-c2ccc(Cl)cc2)c[nH]1 |
| 315 to 316 °C | Cn1cc(C2=C(c3c4n(c5ccccc35)CCC(C(N)=O)C4)C(=O)NC2=O)c2ccccc21 (configuration not stated) |
| 218 to 220 °C | Cc1ccc(-c2c(Cl)ccc3c2C=C(C(=O)O)C(C(F)(F)F)O3)cc1 (configuration not stated) |
| 173 to 180 °C | CC(C)n1cc(C(=O)NCc2ccc(Cl)cc2)c(=O)c2cc(I)sc21 |
| 198 °C | O=C(Nc1ccc2ccc(Cl)nc2n1)c1ccccc1 |
| 180 to 181 °C | CCOC(=O)CCCCCOc1ccc(C(=O)Nc2ccccc2S(=O)(=O)c2ccccc2-c2nnn[nH]2)cc1 |
| 74 to 76 °C | CCON=C(c1ccccc1COc1cc(C)ccc1C)c1ccnn1C |
| 136 to 137 °C | O=C(c1ccco1)N1N=CCC1c1ccccc1 (configuration not stated) |
| 118 to 119 °C | C[C@@H]1Cc2cc3c(cc2C(c2ccc(N)cc2)=NN1c1ccccc1)OCO3 |
| 232 to 233 °C | O=C1c2cccc3c([N+](=O)[O-])c(Br)cc(c23)C(=O)N1O |
| 131 to 136 °C | Oc1ccc([C@H]2CC[C@H](NCC#Cc3ccccc3)CC2)cc1 |
| 75 to 80 °C | Cc1ccc(-c2ccc(O)cc2)c(-c2ccc(OCCN3CCOCC3)cc2)n1 |
| 150 to 153 °C | COc1ccc(Cn2cc3nc(Cl)nc(OCc4ccccc4)c3n2)cc1 |
| 180 °C | O=C(NOCCO)c1cc(Cl)c(F)c(F)c1Nc1ccc(I)cc1F |
